From ChEMBL document CHEMBL6103586, “Optimization of pyrazole/1,2,4-triazole as dual EGFR/COX-2 inhibitors: Design, synthesis, anticancer potential, apoptosis induction and cell cycle analysis” (Eur J Med Chem, 2025)

Legend:
[1] = biological target: Prostaglandin G/H synthase 1 (Homo sapiens, UniProt P23219)
Description: Inhibition of COX-1 (unknown origin) using arachidonic acid as substrate by fluorescence based analysis

MCF7 [2] = experiment: Cytotoxicity against human MCF7 cells assessed as cell growth inhibition measured after 24 hrs by spectrophotometry based MTT assay; format: functional; details: MCF7, 24 h
HT-29 = experiment: Cytotoxicity against human HT-29 cells assessed as cell growth inhibition measured after 24 hrs by spectrophotometry based MTT assay; format: functional; details: HT-29, 24 h
A549 = experiment: Cytotoxicity against human A549 cells assessed as cell growth inhibition measured after 24 hrs by spectrophotometry based MTT assay; format: functional; details: A549, 24 h
[3] = biological target: Epidermal growth factor receptor (Homo sapiens, UniProt P00533); experiment: Inhibition of human wild-type EGFR by Kinase-Glo assay
[4] = biological target: Epidermal growth factor receptor (Homo sapiens, UniProt P00533, T790M); experiment: Inhibition of human EGFR T790M mutant by Kinase-Glo assay
MCF7 [5] = experiment: Induction of cell cycle arrest in human MCF-7 cells assessed as accumulation of cells at G0/G1 phase cells at 1.207 uM incubated for 24 hrs by propidium iodide based flow cytometry analysis (reference value: 66.25%); format: functional
MCF7 [6] = experiment: Induction of cell cycle arrest in human MCF-7 cells assessed as accumulation of cells at S phase cells at 1.207 uM incubated for 24 hrs by propidium iodide based flow cytometry analysis (reference value: 23.88%); format: functional
MCF7 [7] = experiment: Induction of cell cycle arrest in human MCF-7 cells assessed as accumulation of cells at G2/M phase cells at 1.207 uM incubated for 24 hrs by propidium iodide based flow cytometry analysis (reference value: 9.87%); format: functional
MCF7 [8] = experiment: Induction of apoptosis in human MCF7 cells assessed as early apoptotic cells at 1.207 uM incubated for 24 hrs by Annexin V-FITC/PI staining based flow cytometry analysis (reference value: 0.36%); format: functional
MCF7 [9] = experiment: Induction of apoptosis in human MCF7 cells assessed as late apoptotic cells at 1.207 uM incubated for 24 hrs by Annexin V-FITC/PI staining based flow cytometry analysis (reference value: 0.11%); format: functional
MCF7 [10] = experiment: Induction of apoptosis in human MCF7 cells assessed as necrotic cells at 1.207 uM incubated for 24 hrs by Annexin V-FITC/PI staining based flow cytometry analysis (reference value: 2.04%); format: functional
MCF7 [11] = experiment: Induction of apoptosis in human MCF7 cells assessed as total apoptotic cells at 1.207 uM incubated for 24 hrs by Annexin V-FITC/PI staining based flow cytometry analysis (reference value: 2.51%); format: functional

Prostaglandin G/H synthase 1, sequence (P23219 whole entry): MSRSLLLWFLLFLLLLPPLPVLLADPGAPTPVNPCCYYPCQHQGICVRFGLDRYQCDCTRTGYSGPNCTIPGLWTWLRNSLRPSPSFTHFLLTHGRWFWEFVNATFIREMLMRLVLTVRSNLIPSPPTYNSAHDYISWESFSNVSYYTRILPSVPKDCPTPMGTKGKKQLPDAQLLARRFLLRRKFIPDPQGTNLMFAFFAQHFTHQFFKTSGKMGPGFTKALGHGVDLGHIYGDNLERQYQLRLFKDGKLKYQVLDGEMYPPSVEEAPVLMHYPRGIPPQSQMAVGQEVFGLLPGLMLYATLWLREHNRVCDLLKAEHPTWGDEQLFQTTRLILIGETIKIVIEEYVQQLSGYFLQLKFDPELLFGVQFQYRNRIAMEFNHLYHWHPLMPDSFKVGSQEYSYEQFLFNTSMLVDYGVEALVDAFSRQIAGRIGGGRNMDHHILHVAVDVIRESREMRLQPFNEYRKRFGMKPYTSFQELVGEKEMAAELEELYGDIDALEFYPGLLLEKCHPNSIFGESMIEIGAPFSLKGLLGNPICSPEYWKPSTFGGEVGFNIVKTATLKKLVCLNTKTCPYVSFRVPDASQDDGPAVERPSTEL
Epidermal growth factor receptor (Homo sapiens, UniProt P00533, T790M), sequence (P00533 25-1210 T790M limits assumed): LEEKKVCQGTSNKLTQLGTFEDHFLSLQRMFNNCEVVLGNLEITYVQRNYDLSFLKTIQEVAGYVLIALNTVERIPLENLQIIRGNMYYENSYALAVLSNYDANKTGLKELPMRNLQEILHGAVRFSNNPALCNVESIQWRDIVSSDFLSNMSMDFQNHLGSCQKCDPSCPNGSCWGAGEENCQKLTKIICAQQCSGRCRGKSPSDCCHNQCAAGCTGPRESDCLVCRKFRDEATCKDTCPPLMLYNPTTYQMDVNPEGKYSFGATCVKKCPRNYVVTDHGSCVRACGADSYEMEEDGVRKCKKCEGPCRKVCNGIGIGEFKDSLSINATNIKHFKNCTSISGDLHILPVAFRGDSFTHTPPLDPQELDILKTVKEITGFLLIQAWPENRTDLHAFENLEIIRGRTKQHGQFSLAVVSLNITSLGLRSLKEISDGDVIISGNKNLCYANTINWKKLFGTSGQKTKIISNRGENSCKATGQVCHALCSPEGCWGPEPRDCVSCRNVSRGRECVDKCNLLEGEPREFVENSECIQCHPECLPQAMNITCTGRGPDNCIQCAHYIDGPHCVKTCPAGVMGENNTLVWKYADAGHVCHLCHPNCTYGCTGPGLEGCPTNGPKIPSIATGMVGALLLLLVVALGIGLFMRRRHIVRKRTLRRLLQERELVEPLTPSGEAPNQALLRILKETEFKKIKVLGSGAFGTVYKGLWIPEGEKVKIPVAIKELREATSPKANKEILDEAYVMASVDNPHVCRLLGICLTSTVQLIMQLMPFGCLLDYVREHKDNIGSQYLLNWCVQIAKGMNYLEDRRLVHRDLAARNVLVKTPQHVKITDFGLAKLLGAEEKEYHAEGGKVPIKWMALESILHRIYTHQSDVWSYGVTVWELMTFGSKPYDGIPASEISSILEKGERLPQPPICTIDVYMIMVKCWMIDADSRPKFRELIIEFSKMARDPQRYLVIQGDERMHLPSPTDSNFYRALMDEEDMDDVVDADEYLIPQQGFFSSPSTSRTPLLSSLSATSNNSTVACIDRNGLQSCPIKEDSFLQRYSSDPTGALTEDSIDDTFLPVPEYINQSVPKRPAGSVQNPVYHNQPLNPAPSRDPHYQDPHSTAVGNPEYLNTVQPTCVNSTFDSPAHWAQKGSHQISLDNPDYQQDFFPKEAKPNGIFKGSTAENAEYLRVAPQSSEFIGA
Epidermal growth factor receptor (Homo sapiens, UniProt P00533), sequence (P00533 whole entry): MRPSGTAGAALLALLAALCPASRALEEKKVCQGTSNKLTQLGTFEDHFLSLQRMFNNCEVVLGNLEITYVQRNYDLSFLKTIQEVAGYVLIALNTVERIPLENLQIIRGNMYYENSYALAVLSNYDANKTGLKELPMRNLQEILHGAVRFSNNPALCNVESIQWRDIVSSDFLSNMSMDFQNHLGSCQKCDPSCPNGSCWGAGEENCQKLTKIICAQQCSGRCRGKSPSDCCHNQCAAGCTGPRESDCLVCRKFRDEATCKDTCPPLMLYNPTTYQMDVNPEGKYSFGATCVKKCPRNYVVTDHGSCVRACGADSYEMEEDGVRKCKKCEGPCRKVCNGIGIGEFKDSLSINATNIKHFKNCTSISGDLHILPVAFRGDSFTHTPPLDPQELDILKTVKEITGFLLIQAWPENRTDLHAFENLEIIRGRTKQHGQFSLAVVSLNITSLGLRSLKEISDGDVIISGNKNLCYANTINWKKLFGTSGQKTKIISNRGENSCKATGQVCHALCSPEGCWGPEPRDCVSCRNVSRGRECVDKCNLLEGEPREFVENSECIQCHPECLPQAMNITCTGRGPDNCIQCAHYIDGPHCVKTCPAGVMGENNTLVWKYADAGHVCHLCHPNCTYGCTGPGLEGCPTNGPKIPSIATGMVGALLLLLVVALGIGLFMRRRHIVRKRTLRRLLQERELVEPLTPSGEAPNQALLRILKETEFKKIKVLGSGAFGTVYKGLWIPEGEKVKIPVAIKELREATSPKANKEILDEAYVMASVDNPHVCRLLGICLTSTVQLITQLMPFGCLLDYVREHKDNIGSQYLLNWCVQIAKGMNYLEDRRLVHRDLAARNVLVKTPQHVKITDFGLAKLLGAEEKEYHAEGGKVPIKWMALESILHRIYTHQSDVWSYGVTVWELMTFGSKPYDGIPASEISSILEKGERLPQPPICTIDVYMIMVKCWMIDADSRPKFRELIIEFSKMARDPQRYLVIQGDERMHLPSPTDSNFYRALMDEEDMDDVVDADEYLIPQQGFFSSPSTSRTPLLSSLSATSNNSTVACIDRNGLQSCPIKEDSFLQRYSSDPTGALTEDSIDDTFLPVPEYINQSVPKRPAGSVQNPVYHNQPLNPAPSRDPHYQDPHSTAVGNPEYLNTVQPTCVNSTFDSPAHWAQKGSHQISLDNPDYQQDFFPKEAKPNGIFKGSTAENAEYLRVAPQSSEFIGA

SMILES	IC50 (MCF7 [2])	IC50 (HT-29)	IC50 (A549)	further results
Cc1c(-c2nnc(S)n2N=Cc2ccc(F)cc2)cnn1-c1ccc(S(C)(=O)=O)cc1	1.2 µM	5.14 µM	14.8 µM	IC50 [1]: 20.1 µM; IC50 [3]: 0.121 µM; IC50 [4]: 0.076 µM; Activity (MCF7 [5]): 47.64%; Activity (MCF7 [6]): 13.21%; Activity (MCF7 [7]): 39.15%; Activity (MCF7 [8]): 22.81%; Activity (MCF7 [9]): 9.57%; Activity (MCF7 [10]): 6.29%; Activity (MCF7 [11]): 38.67%
Cc1c(-c2nnc(S)n2N=Cc2ccc(N(C)C)cc2)cnn1-c1ccc(S(C)(=O)=O)cc1	10.5 µM	13.9 µM	31.8 µM	–
Cc1ccc(-c2cc(C(F)(F)F)nn2-c2ccc(S(N)(=O)=O)cc2)cc1 [CELECOXIB]	16.5 µM	41.5 µM	21.7 µM	–
COc1cc(C=Nn2c(S)nnc2-c2cnn(-c3ccc(S(C)(=O)=O)cc3)c2C)cc(OC)c1OC	48.5 µM	51.5 µM	35.9 µM	–
COc1cccc(C=Nn2c(S)nnc2-c2cnn(-c3ccc(S(C)(=O)=O)cc3)c2C)c1OC	22 µM	28.1 µM	13.5 µM	–
COc1cccc(C=Nn2c(S)nnc2-c2cnn(-c3ccccc3)c2C)c1OC	41.6 µM	73.7 µM	14.8 µM	–
C=CC(=O)Nc1cc(Nc2nccc(-c3cn(C)c4ccccc34)n2)c(OC)cc1N(C)CCN(C)C [OSIMERTINIB]	3.45 µM	0.75 µM	1.66 µM	–
COc1ccc(C=Nn2c(S)nnc2-c2cnn(-c3ccc(S(C)(=O)=O)cc3)c2C)cc1OC	5.14 µM	9.23 µM	2.38 µM	IC50 [1]: 14.5 µM; IC50 [3]: 0.216 µM; IC50 [4]: 0.135 µM
Cc1c(-c2nnc(S)n2N=Cc2ccc(F)cc2)cnn1-c1ccccc1	16.9 µM	12 µM	7.27 µM	–
COc1cc(C=Nn2c(S)nnc2-c2cnn(-c3ccccc3)c2C)cc(OC)c1OC	33.2 µM	22.5 µM	17.2 µM	–
Cc1c(-c2nnc(S)n2N=Cc2ccc(N(C)C)cc2)cnn1-c1ccccc1	7.46 µM	2.93 µM	3.78 µM	IC50 [1]: 36 µM; IC50 [3]: 0.423 µM; IC50 [4]: 0.764 µM
Cc1c(-c2nnc(S)n2N=Cc2ccc([N+](=O)[O-])cc2)cnn1-c1ccccc1	12.8 µM	10.6 µM	6.38 µM	–
COc1ccc(C=Nn2c(S)nnc2-c2cnn(-c3ccccc3)c2C)cc1OC	20.2 µM	13.1 µM	18.6 µM	–
Cc1c(-c2nnc(S)n2N=Cc2ccc([N+](=O)[O-])cc2)cnn1-c1ccc(S(C)(=O)=O)cc1	4.95 µM	13 µM	4.89 µM	–
